Test results: ChEMBL document CHEMBL5518235, “Identification of Novel Series of Potent and Selective Relaxin Family Peptide Receptor 1 (RXFP1) Agonists” (J Med Chem, 2024)
Values after ≈ are worked out from the molar mass of the structure shown. Active and inactive are the calls of the source. The rule behind the calls is not given here.

Experiments:
Relaxin receptor 1 = molecular target: T1, Relaxin receptor 1 (Homo sapiens, UniProt Q9HBX9); experiment: Agonist activity at human RXFP1 expressed in T-Rex-CHO-K1 cells assessed as stimulation of cAMP production incubated for 45 mins by HTRF assay; assay type: functional, cell-based
T1 sequence (Q9HBX9 whole entry): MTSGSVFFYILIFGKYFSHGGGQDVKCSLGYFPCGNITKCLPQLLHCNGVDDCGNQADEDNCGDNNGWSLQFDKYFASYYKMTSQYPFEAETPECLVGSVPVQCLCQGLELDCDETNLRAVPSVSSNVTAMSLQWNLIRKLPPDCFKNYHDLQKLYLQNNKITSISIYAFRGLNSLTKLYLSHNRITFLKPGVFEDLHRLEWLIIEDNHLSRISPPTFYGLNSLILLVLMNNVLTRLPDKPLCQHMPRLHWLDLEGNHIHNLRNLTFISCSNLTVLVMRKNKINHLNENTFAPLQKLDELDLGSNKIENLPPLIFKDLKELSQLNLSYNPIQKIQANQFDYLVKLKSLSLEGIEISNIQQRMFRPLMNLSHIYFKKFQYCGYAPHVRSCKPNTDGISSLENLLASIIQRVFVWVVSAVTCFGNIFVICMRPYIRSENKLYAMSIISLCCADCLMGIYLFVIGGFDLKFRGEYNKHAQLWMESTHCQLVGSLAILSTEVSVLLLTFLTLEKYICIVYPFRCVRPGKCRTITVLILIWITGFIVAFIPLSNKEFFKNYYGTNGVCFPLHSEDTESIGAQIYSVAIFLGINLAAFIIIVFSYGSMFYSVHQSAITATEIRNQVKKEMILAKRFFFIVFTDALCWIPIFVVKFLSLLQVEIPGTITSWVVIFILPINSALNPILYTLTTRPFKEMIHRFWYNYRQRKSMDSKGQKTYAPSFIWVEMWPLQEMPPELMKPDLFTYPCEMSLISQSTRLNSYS

[1] = molecular target: T2, Relaxin receptor 1 (Homo sapiens) (UniProt Q9HBX9); experiment: Agonist activity at human RXFP1 expressed in T-Rex-CHO-K1 cells assessed as stimulation of cAMP production by measuring maximal efficacy at 50 uM incubated for 45 mins by HTRF assay relative to control; assay type: functional, cell-based; details: filed as agonist
T2 sequence (whole entry): T1 sequence (Q9HBX9 whole entry)

[2] = Lipophilicity, logD of the compound in 1-octanol and phosphate buffer at pH 7.4 incubated for 3 hrs by shake flask method based LC/MS/MS analysis; assay type: physicochemical; details: 1-octanol/phosphate buffer, pH 7.4
[3] = Metabolic stability in cryopreserved human hepatocytes assessed as intrinsic clearance measured per 10^6 cells at 1 uM after 120 mins by LC-MS/MS analysis; assay type: ADME, cell-based, Hepatocyte; details: cryopreserved hepatocytes, read-out: CLH
[4] = Metabolic stability in cryopreserved human hepatocytes assessed as unbound intrinsic clearance measured per 10^6 cells at 1 uM measured after 120 mins by LC-MS/MS analysis; assay type: ADME, cell-based, Hepatocyte; details: 2 h
[5] = molecular target: T2, Relaxin receptor 1 (Homo sapiens); experiment: Displacement of [125I]relaxin H2 from human RXFP1 expressed in CHO cells incubated for 90 mins by radioligand binding assay; assay type: cell-based
[6] = Kinetic solubility of compound at pH 7.4 incubated for 24 hrs by shake-flask method based LC-MS/MS analysis; assay type: physicochemical; details: buffer, read-out: Kinetic_solubility
[7] = Metabolic stability in human liver microsomes assessed as intrinsic clearance at 1 uM incubated for 30 mins in presence of NADPH by LC-MS/MS analysis; assay type: ADME, Microsome; details: liver microsomes, read-out: CLH
[8] = Metabolic stability in human liver microsomes assessed as unbound intrinsic clearance at 1 uM incubated for 30 mins in presence of NADPH by LC-MS/MS analysis; assay type: ADME, Microsome; details: 0.5 h
[9] = Protein binding in rat plasma assessed as free fraction at 5 uM incubated for 18 hrs by equilibrium dialysis based LC-MS/MS analysis; assay type: ADME, cell-free
[10] = Metabolic stability in Han Wistar rat hepatocytes assessed as intrinsic clearance measured per 10^6 cells at 1 uM after 120 mins by LC-MS/MS analysis; assay type: ADME, cell-based, Hepatocyte; details: read-out: CLH
[11] = Metabolic stability in Han Wistar rat hepatocytes assessed as unbound intrinsic clearance measured […] at 1 uM after 120 mins by LC-MS/MS analysis; assay type: ADME, cell-based, Hepatocyte; details: 2 h
[12] = molecular target: T3, Relaxin receptor 1 (Rattus norvegicus) (UniProt Q6R6I6); experiment: Agonist activity at rat RXFP1 expressed in T-Rex-CHO-K1 cells assessed as stimulation of cAMP production at 40 uM incubated for 45 mins by HTRF assay; assay type: functional, cell-based
T3 sequence (whole entry): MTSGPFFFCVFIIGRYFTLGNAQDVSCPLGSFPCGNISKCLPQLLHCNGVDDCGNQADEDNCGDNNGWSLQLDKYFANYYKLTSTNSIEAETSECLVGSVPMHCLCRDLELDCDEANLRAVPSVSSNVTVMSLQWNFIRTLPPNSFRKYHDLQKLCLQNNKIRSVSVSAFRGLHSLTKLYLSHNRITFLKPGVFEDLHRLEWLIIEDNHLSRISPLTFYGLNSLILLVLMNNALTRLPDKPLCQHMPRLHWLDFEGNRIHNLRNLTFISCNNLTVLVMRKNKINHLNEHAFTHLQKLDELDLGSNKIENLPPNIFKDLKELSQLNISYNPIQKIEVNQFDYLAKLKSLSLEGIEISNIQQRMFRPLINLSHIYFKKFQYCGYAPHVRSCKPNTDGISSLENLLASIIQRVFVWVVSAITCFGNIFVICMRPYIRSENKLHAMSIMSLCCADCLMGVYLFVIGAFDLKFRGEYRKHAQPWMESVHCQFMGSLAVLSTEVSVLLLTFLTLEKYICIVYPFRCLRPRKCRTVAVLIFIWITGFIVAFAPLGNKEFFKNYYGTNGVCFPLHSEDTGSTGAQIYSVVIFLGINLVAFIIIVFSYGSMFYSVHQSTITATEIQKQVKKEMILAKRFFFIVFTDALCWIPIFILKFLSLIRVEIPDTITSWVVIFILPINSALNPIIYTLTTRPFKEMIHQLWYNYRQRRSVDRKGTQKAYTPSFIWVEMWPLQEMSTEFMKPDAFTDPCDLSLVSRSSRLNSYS

[13] = Volume of distribution at steady state in Han Wistar rat at 0.99 micromol/kg, iv by LC-MS/MS analysis; assay type: ADME, organism-based; details: in vivo, dose 0.99 µmol/kg, read-out: Vdss
[14] = Clearance in Han Wistar rat at 0.99 micromol/kg, iv by LC-MS/MS analysis; assay type: ADME, organism-based; details: in vivo, dose 0.99 µmol/kg
[15] = Half-life in Han Wistar rat at 0.99 micromol/kg, iv by LC-MS/MS analysis; assay type: ADME, organism-based; details: in vivo, dose 0.99 µmol/kg
[16] = Oral bioavailability in Han Wistar rat at 2.0 micromol/kg by LC-MS/MS analysis; assay type: ADME, organism-based; details: in vivo, 2 µmol/kg
[17] = Metabolic stability in human liver microsomes assessed as unbound fraction at 1 uM incubated for 4 hrs by equilibrium dialysis based LC-MS/MS analysis; assay type: ADME, Microsome
[18] = Metabolic stability in rat hepatocytes assessed as unbound fraction at 1 uM incubated for 4 hrs by equilibrium dialysis based LC-MS/MS analysis; assay type: ADME, cell-based, Hepatocyte
[19] = molecular target: T2, Relaxin receptor 1 (Homo sapiens); experiment: Agonist activity at human RXFP1 expressed in T-Rex-CHO-K1 cells assessed as stimulation of cAMP production at 50 uM incubated for 45 mins by HTRF assay relative to control; assay type: functional, cell-based; details: filed as agonist

Row | SMILES | EC50 (Relaxin receptor 1) [nM] | Emax [1] [%] | logD at 3 h [2] | hepatocyte CLint at 1 µM [3] [µL/min/1e6 cells] | CL free [4] | Activity [5] | solubility kinetic at 24 h [6] [µM] | microsomal CLint at 1 µM [7] [µL/min/mg] | CL free [8] | fraction unbound at 18 h, 5 µM [9] | hepatocyte CLint at 1 µM [10] [µL/min/1e6 cells] | CL free [11] [µL/min] | Activity [12] | Vd [13] [L/kg] | clearance [14] [mL/min/kg] | half-life [15] [h] | bioavailability [16] [%] | fraction unbound at 4 h, 1 µM [17] | fraction unbound at 4 h, 1 µM [18] | Activity [19] [%]
1 | COc1cc(F)c(O[C@H]2CC[C@@H](C(=O)O)CC2)cc1C(=O)N[C@H]1[C@@H](C(=O)Nc2ccc(F)c(C(F)(F)F)c2)[C@@H]2C=C[C@H]1C2 | 15.8 | 124 | 3.55 | 7.7 | 175 µL/min | inactive | – | – | – | – | – | – | – | – | – | – | – | – | – | –
2 | CC(C)Oc1ccccc1C(=O)Nc1ccccc1C(=O)Nc1cccc(S(=O)(=O)C(F)(F)F)c1 | – | – | > 4 | 12.6 | 3.07 10^3uL/min | – | 1 (≈ 0.507 µg/mL) | 55 | 37 10^3uL/min/mg | < 0.0002 | 22 | 5.4 | inactive | 7.7 | 30 | 4.3 | 40 | 2e-05 | 4e-05 | –
3 | O=C(O)c1ccc(-c2cc(C(=O)N[C@H]3[C@@H](C(=O)Nc4cccc(S(=O)(=O)C(F)(F)F)c4)[C@@H]4C=C[C@H]3C4)ccc2F)cc1 (racemic) | > 50100 | – | – | – | – | – | – | – | – | – | – | – | – | – | – | – | – | – | – | 57
